Experiments:
CDK16 = biological target: T1, CDK16 (Homo sapiens, UniProt Q00536); assay: DSF; assay type: binding; details: 10 μM compound
T1 construct: purchased in-house DSF panel (SGC Frankfurt)
Description: (§1) To investigate the selectivity profile of the different series, a differential scanning fluorimetry (DSF) assay was used. This assay offers a rapid and sensitive screening method that determines the denaturation temperature of a protein in absence and presence of a compound. This assay format measures the fluorescence of a dye, which depends on the folding state of the protein. The difference between the melting temperature (ΔTm) in the absence and presence of the compound represents the binding strength to the protein.
(§2) Measurements were performed in duplicates.

CDK2 = biological target: T2, CDK2 (Homo sapiens, UniProt P24941); assay: DSF; assay type: binding; details: 10 μM compound
T2 construct: purchased in-house DSF panel (SGC Frankfurt)
Description: as §1, §2

CDK16/Cyclin Y = biological target: T3, CDK16/Cyclin Y (Homo sapiens, UniProt Q00536); assay: NanoBRET; assay type: cell-based; details: Figure 7, 11-point dose-response in duplicates; read-out: NanoBRET EC50 ± SEM against CDK16
T3 construct: Full-length kinases were obtained as plasmids cloned in frame with a terminal NanoLuc-fusion; CS1810C178 (CCNY); host or cells: HEK293T
T3 sequence (Q00536 whole entry, the tested form may be a part): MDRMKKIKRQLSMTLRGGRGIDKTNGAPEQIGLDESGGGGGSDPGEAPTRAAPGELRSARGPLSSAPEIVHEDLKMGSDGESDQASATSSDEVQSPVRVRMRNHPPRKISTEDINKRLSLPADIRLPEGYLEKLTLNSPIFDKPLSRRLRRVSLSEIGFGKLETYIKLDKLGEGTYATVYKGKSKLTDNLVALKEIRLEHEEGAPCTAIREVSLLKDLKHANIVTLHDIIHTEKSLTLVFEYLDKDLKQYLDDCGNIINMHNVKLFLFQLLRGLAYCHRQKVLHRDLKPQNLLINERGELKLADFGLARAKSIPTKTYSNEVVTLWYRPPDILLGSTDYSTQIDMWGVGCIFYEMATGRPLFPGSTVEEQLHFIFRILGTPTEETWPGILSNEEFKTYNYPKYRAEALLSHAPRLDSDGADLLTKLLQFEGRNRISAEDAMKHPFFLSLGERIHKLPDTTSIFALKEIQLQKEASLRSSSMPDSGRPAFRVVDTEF
T3 sequence (Q8ND76 2-341 partner limits assumed): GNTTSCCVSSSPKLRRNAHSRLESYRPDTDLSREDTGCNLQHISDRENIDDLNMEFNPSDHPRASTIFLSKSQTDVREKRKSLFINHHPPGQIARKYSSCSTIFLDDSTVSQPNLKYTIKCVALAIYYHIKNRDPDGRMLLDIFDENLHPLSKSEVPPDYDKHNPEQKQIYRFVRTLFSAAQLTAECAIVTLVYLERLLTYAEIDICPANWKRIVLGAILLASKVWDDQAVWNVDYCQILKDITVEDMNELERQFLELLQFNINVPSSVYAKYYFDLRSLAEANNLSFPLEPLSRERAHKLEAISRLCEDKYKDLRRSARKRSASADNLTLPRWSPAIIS
Description: Next, to specifically quantify the outcome of the cellular activity of the compounds, a NanoBRET cellular target engagement assay was performed. The determination of the cellular potency on CDK16 correlated well with the corresponding DSF assay data (Figure S2). […] As mentioned before, the exchange from a methyl ester to an iso-propyl or tert-butyl ester led to a higher stabilization of the kinase in the DSF assay, which correlated with an increase in cellular potency as determined in the NanoBRET assay. […] The number of potential off-targets was low with 1 and 2 kinases with ΔTm >5 °C (Figure 4), highlighting these inhibitors for more comprehensive selectivity studied within the CDK and particular the TAIRE subfamily.
The assay was performed as described previously. In brief: Full-length kinases were obtained as plasmids cloned in frame with a terminal NanoLuc-fusion (Promega, Madison, WI, USA), as specified in table (Table S6). Plasmids were transfected into HEK293T cells using FuGENE HD (Promega, E2312) and proteins were allowed to express for 20h. Serially diluted inhibitor and NanoBRET Kinase Tracer (Promega) at a concentration determined previously as the KD,app (Table S5) were pipetted into white 384-well plates (Greiner 781207) using an Echo acoustic dispenser (Labcyte, San Jose, CA, USA). The corresponding protein-transfected cells were added and reseeded at a density of 2.5 × 10^5 cells/mL after trypsinization and resuspending in Opti-MEM without phenol red (Life Technologies, Carlsbad, CA, USA). The system was allowed to equilibrate for 2 h at 37 °C/5% CO2 prior to BRET measurements. To measure BRET, NanoBRET NanoGlo Substrate + Extracellular NanoLuc Inhibitor (Promega, N2540) was added as per the manufacturer’s protocol, and filtered luminescence was measured on a PHERAstar plate reader (BMG Labtech, Ortenberg, Germany) equipped with a luminescence filter pair (450 nm BP filter (donor) and 610 nm LP filter (acceptor)). Competitive displacement data were then graphed using GraphPad Prism 9 software using a normalized 3-parameter curve fit with the following equation: Y = 100/(1 + 10^(X–LogEC50)).

GSK3B = GSK3B (Homo sapiens, UniProt P49841); assay: DSF; assay type: binding; design: purchased in-house DSF panel (SGC Frankfurt); details: 10 μM compound
GSK3B, sequence (P49841 35-386): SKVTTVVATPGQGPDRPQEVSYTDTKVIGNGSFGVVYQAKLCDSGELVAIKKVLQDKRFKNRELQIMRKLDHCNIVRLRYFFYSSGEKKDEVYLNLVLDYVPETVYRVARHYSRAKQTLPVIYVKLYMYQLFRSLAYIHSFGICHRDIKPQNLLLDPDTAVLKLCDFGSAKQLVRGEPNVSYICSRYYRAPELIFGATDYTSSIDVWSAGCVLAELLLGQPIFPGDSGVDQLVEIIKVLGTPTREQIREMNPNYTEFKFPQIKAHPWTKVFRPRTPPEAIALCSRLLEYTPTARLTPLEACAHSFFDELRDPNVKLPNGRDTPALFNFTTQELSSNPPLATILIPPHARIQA
Description: as §1, §2

T1 sequence (Q00536 163-478): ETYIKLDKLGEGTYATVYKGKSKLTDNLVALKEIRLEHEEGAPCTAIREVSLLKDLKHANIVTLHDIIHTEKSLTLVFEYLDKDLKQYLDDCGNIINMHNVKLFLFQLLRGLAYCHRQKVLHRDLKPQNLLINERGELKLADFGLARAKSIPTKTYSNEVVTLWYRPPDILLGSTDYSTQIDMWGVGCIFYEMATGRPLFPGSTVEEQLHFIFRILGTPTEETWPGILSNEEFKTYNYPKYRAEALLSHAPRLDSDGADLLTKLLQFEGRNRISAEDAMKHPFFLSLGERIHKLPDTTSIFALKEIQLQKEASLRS

| SMILES | ΔTm at 10 µM (CDK16) [°C] | ΔTm at 10 µM (CDK2) [°C] | EC50 (CDK16/Cyclin Y) [nM] | ΔTm at 10 µM (GSK3B) [°C] |
| --- | --- | --- | --- | --- |
| COC(=O)c1cc(Nc2nc(NCCCCCNC(=O)OC(C)(C)C)ncc2Cl)[nH]n1 [22c, methyl 5-((2-((5-((tert-butoxycarbonyl)amino)pentyl)amino)-5-chloropyrimidin-4-yl)amino)-1H-pyrazole-3-carboxylate] | 1 ± 0.1 | 1.5 ± 0.1 | 8320 ± 227 | 4.8 ± 0.2 |
| COC(=O)c1cc(Nc2nc(Nc3cccc(CCNC(=O)OC(C)(C)C)c3)nc3ccccc23)[nH]n1 [23b, methyl 5-((2-((3-(2-((tert-butoxycarbonyl)amino)ethyl)phenyl)amino)quinazolin-4-yl)amino)-1H-pyrazole-3-carboxylate] | 0.2 ± 0.2 | 0.6 | 6820 ± 280 | 1.4 ± 0.3 |
| Cc1cnc(Nc2ccc(CCNC(=O)OC(C)(C)C)cc2)nc1Nc1cc(C2CC2)n[nH]1 [12a, tert-butyl 4-((4-((3-cyclopropyl-1H-pyrazol-5-yl)amino)-5-methylpyrimidin-2-yl)amino)-phenethylcarbamate] | 6.2 ± 0.1 | 8.7 ± 0.1 | 172 ± 20.9 | 5.7 ± 0.2 |
| CC(C)(C)OC(=O)NCCCCCNc1nccc(Nc2cc(C3CC3)[nH]n2)n1 [11c, tert-butyl (5-((4-((3-cyclopropyl-1H-pyrazol-5-yl)amino)pyrimidin-2-yl)amino)pentyl) carbamate] | 9.4 | 10.4 ± 0.3 | 33 ± 0.1 | 7.1 ± 0.2 |
| CC(C)(C)OC(=O)NCc1ccc(CNc2nccc(Nc3cc(C4CC4)n[nH]3)n2)cc1 [11f, tert-butyl 4-(((4-((3-cyclopropyl-1H-pyrazol-5-yl)amino)pyrimidin-2-yl)amino)methyl)-benzylcarbamate] | 7.6 ± 0.2 | 8.4 ± 0.1 | 110 ± 9.7 | 6.3 ± 0.1 |
| COC(=O)c1cc(Nc2nc(Nc3ccc(CCNC(=O)OC(C)(C)C)cc3)ncc2Cl)[nH]n1 [22a, methyl 5-((2-((4-(2-((tert-butoxycarbonyl)amino)ethyl)phenyl)amino)-5-chloropyrimidin-4-yl)amino)-1H-pyrazole-3-carboxylate] | 0.3 ± 0.1 | 2 ± 0.3 | 1860 ± 276 | 3.3 ± 0.5 |
| CNC(=O)c1cc(Nc2ccnc(Nc3ccc(CC#N)cc3)n2)[nH]n1 [41c, 5-((2-((4-(cyanomethyl)phenyl)amino)pyrimidin-4-yl)amino)-N-methyl-1H-pyrazole-3-carboxamide] | 1.4 ± 0.4 | 2.7 ± 0.2 | 5550 ± 636 | 9.3 ± 0.1 |
| Cc1cnc(NCCCCCNC(=O)OC(C)(C)C)nc1Nc1cc(C2CC2)n[nH]1 [12c, tert-butyl (5-((4-((3-cyclopropyl-1H-pyrazol-5-yl)amino)-5-methylpyrimidin-2-yl)amino)-pentyl)carbamate] | 6.5 ± 0.1 | 7.2 ± 0.2 | 176 ± 3 | 6.1 ± 0.1 |
| CC(C)(C)OC(=O)NCCc1ccc(Nc2nccc(Nc3cc(C(C)(C)C)n[nH]3)n2)cc1 [40a, tert-butyl 4-((4-((3-(tert-butyl)-1H-pyrazol-5-yl)amino)pyrimidin-2-yl)amino)phenethyl-carbamate] | 4.4 ± 0.1 | 5.8 ± 0.1 | 1130 ± 20.5 | 5.7 |
| COC(=O)c1cc(Nc2nc(NCCCCCNC(=O)OC(C)(C)C)nc3ccccc23)[nH]n1 [23c, methyl 5-((2-((5-((tert-butoxycarbonyl)amino)pentyl)amino)quinazolin-4-yl)amino)-1H-pyrazole-3-carboxylate] | 3.4 ± 0.1 | 1.3 ± 0.5 | 4600 ± 385 | 4.2 |
| Cc1cc(Nc2ccnc(NCCCCCNC(=O)OC(C)(C)C)n2)[nH]n1 [38b, tert-butyl (5-((4-((3-methyl-1H-pyrazol-5-yl)amino)pyrimidin-2-yl)amino)pentyl)-carbamate] | 5.8 ± 0.2 | 4.7 ± 0.1 | 253 ± 19.2 | 4.6 ± 0.1 |
| COC(=O)c1cc(Nc2ccnc(NCc3ccc(CNC(=O)OC(C)(C)C)cc3)n2)[nH]n1 [21g, methyl 5-((2-((4-(((tert-butoxycarbonyl)amino)methyl)benzyl)amino)pyrimidin-4-yl)amino)-1H-pyrazole-3-carboxylate] | 5.3 ± 0.1 | 3.3 ± 0.1 | 879 ± 5.5 | 7.7 ± 0.1 |
| CC(C)(C)c1cc(Nc2ccnc(Nc3ccc(CC#N)cc3)n2)[nH]n1 [40c, 2-(4-((4-((3-(tert-butyl)-1H-pyrazol-5-yl)amino)pyrimidin-2-yl)amino)phenyl)acetonitrile] | 5.7 ± 0.1 | 10.7 ± 0.1 | 351 ± 34.1 | 10.4 |
| COC(=O)c1cc(Nc2nc(Nc3cccc(CCNC(=O)OC(C)(C)C)c3)ncc2Cl)[nH]n1 [22b, methyl 5-((2-((3-(2-((tert-butoxycarbonyl)amino)ethyl)phenyl)amino)-5-chloropyrimidin-4-yl)amino)-1H-pyrazole-3-carboxylate] | 0.8 ± 0.1 | 2.1 ± 0.1 | 3190 ± 589 | 3.9 ± 0.6 |
| CC(C)c1cc(Nc2ccnc(Nc3ccc(CCNC(=O)OC(C)(C)C)cc3)n2)[nH]n1 [39a, tert-butyl 4-((4-((3-isopropyl-1H-pyrazol-5-yl)amino)pyrimidin-2-yl)amino)phenethyl-carbamate] | 7.9 ± 0.4 | 9.8 ± 1.3 | 70 ± 4.9 | 7 ± 0.1 |
| COC(=O)c1cc(Nc2nc(NCCCCCCNC(=O)OC(C)(C)C)ncc2Cl)[nH]n1 [22e, methyl 5-((2-((6-((tert-butoxycarbonyl)amino)hexyl)amino)-5-chloropyrimidin-4-yl)amino)-1H-pyrazole-3-carboxylate] | 0.2 ± 0.3 | 0.7 | 12090 ± 65 | 2.9 ± 0.1 |
| CC(C)(C)OC(=O)NCCCCCNc1nccc(Nc2cc(C(C)(C)C)n[nH]2)n1 [40b, tert-butyl (5-((4-((3-(tert-butyl)-1H-pyrazol-5-yl)amino)pyrimidin-2-yl)amino)pentyl)-carbamate] | 5.1 ± 0.1 | 4.3 ± 0.1 | 504 ± 9.3 | 4.9 ± 0.1 |
| CNC(=O)c1cc(Nc2ccnc(NCCCCCNC(=O)OC(C)(C)C)n2)[nH]n1 [41b, tert-butyl (5-((4-((3-(methylcarbamoyl)-1H-pyrazol-5-yl)amino)pyrimidin-2-yl)amino)-pentyl)carbamate] | 1.5 ± 0.1 | 1.2 ± 0.2 | 2470 ± 248 | 1.3 ± 0.1 |
| CNC(=O)c1cc(Nc2ccnc(Nc3ccc(CCNC(=O)OC(C)(C)C)cc3)n2)[nH]n1 [41a, tert-butyl 4-((4-((3-(methylcarbamoyl)-1H-pyrazol-5-yl)amino)pyrimidin-2-yl)amino)-phenethylcarbamate] | 0.9 | 1.2 ± 0.2 | 4160 ± 274 | 2.9 |
| Cc1cnc(Nc2cccc(CCNC(=O)OC(C)(C)C)c2)nc1Nc1cc(C2CC2)n[nH]1 [12b, tert-butyl 3-((4-((3-cyclopropyl-1H-pyrazol-5-yl)amino)-5-methylpyrimidin-2-yl)amino)-phenethylcarbamate] | 3.7 ± 0.1 | 4.7 | 1100 ± 44.5 | 5.1 |
| CC(C)(C)OC(=O)NCCc1ccc(Nc2ncc(Cl)c(Nc3cc(C4CC4)n[nH]3)n2)cc1 [13a, tert-butyl 4-((5-chloro-4-((3-cyclopropyl-1H-pyrazol-5-yl)amino)pyrimidin-2-yl)amino)phenethylcarbamate] | 3.2 | 5.9 | 354 ± 60.5 | 4.6 |
| COC(=O)c1cc(Nc2ccnc(NCCCCCNC(=O)OC(C)(C)C)n2)[nH]n1 [21c, methyl 5-((2-((5-((tert-butoxycarbonyl)amino)pentyl)amino)pyrimidin-4-yl)amino)-1H-pyrazole-3-carboxylate] | 8.5 ± 0.2 | 5.6 | 107 | 8.6 |

— publication PMC9736855, “Discovery of 3-Amino-1H-pyrazole-Based Kinase Inhibitors to Illuminate the Understudied PCTAIRE Family” (International Journal of Molecular Sciences, 2022)
